Experimental data from patent publication US20230150924A1, “NOVEL COMPOUND HAVING CANCER METASTASIS INHIBITORY ACTIVITY, PREPARATION METHOD THEREFOR, AND PHARMACEUTICAL COMPOSITION FOR INHIBITING CANCER METASTASIS AND INVASION OR TREATING COLORECTAL CANCER, COMPRISING COMPOUND” (CELLGENTEK CO., LTD., priority 2019, published 2023).

Columns and labels:
KAI1 promoter = KAI1 promoter luciferase reporter assay in transfected Caco2 cells; type: cell-based, human; conditions: 1 μM compound, 16 hours, transfected Caco2 cells, luciferase activity relative to DMSO control (=1); for fold induction at 1 µM: Homo sapiens, Caco-2, 16 h, read-out: Relative KAI promoter activity
[1] = tested on: invasion of colorectal cancer cells; test: In vivo relative invation (invasion; EV and KITENIN controls, no method described); conditions: relative to EV (=1); KIT = KITENIN

CCCCN(CCO)Cc1cccc(C(=O)NCC(=O)c2cccc(OC)c2)c1 [Example 288, 3-((butyl (2-hydroxyethyl)amino)methyl)-N-(2-(3-methoxyphenyl)-2-oxoethyl)benzamide]
fold induction at 1 µM (KAI1 promoter): 1.73 | In vivo relative invation [1]: 1.222

CN(CCO)Cc1ccc(C(=O)NCC(=O)c2ccccc2)cc1 [Example 267, 4-(((2-hydroxyethyl) (methyl)amino)methyl)-N-(2-oxo-2-phenylethyl)benzamide]
fold induction at 1 µM (KAI1 promoter): 3.56 | In vivo relative invation [1]: 0.9046

O=C(COc1ccccc1C(=O)NCC(=O)c1ccccc1)Nc1ccc2c(c1)CCC2 [Example 219, 2-(2-((2,3-dihydro-1H-inden-5-yl)amino)-2-oxoethoxy)-N-(2-oxo-2-phenylethyl)benzamide]
fold induction at 1 µM (KAI1 promoter): 1.27 | In vivo relative invation [1]: 1.145

O=C(CNC(=O)c1ccccc1OC1CCN(C(=O)c2ccc(F)cc2)CC1)c1ccccc1 [Example 154, 2-((1-(4-fluorobenzoyl)piperidin-4-yl)oxy)-N-(2-oxo-2-phenylethyl)benzamide]
fold induction at 1 µM (KAI1 promoter): 1.05 | In vivo relative invation [1]: 1.173

C=CCN(CC=C)Cc1cccc(C(=O)NCC(=O)c2cccc(OC)c2)c1 [Example 285, 3-((diallylamino)methyl)-N-(2-(3-methoxyphenyl)-2-oxoethyl)benzamide]
fold induction at 1 µM (KAI1 promoter): 1.47 | In vivo relative invation [1]: 1.247

CC(Oc1ccccc1)C(=O)NCC(=O)c1cccnc1 (stereo not shown) [Example 131, N-(2-oxo-2-(pyridin-3-yl)ethyl)-2-phenoxypropanamide]
fold induction at 1 µM (KAI1 promoter): 1.19 | In vivo relative invation [1]: 1.293

Cc1ccc(S(=O)(=O)NCC(=O)c2ccccc2)cc1 [Example 27, 4-methyl-N-(2-oxo-2-phenylethyl)benzenesulfonamide]
fold induction at 1 µM (KAI1 promoter): 1.31 | In vivo relative invation [1]: 1.044

O=C(CNC(=O)c1ccccc1OC1CCN(C(=O)C2CC2)CC1)c1ccccc1 [Example 166, 2-((1-(cyclopropanecarbonyl)piperidin-4-yl)oxy)-N-(2-oxo-2-phenylethyl)benzamide]
fold induction at 1 µM (KAI1 promoter): 1.01 | In vivo relative invation [1]: 1.094

O=C(CNC(=O)c1ccccc1OC1CCN(C(=O)c2ccc(F)cc2Cl)CC1)c1ccccc1 [Example 194, 2-((1-(2-chloro-4-fluorobenzoyl)piperidin-4-yl)oxy)-N-(2-oxo-2-phenylethyl)benzamide]
fold induction at 1 µM (KAI1 promoter): 1.01 | In vivo relative invation [1]: 1.259

Cc1cccc(C(=O)NCC(=O)c2ccccc2)c1 [Example 13, 3-methyl-N-(2-oxo-2-phenylethyl)benzamide]
fold induction at 1 µM (KAI1 promoter): 1.73 | In vivo relative invation [1]: 0.8565

O=C(CNC(=O)c1ccc(CN(C2CCCCC2)C2CCCCC2)cc1)c1ccccc1 [Example 270, 4-((dicyclohexylamino)methyl)-N-(2-oxo-2-phenylethyl)benzamide]
fold induction at 1 µM (KAI1 promoter): 1.47 | In vivo relative invation [1]: 1.238

O=C(CNS(=O)(=O)c1ccc(F)cc1)c1ccccc1 [Example 26, 4-fluoro-N-(2-oxo-2-phenylethyl)benzenesulfonamide]
fold induction at 1 µM (KAI1 promoter): 1.26 | In vivo relative invation [1]: 1.063

O=C(CNC(=O)c1ccccc1OC1CCN(S(=O)(=O)c2cccc([S](=O)=O)c2)CC1)c1ccccc1 [Example 175, 2-((1-((3-(dioxo-15-sulfanyl)phenyl)sulfonyl)piperidin-4-yl)oxy)-N-(2-oxo-2-phenylethyl)benzamide]
Relative KAI promoter activity (KAI1 promoter): 0.97 | In vivo relative invation [1]: 1.149

O=C(CNC(=O)c1cc(Cl)cc(Cl)c1)c1ccccc1 [Example 36, 3,5-dichloro-N-(2-oxo-2-phenylethyl)benzamide]
fold induction at 1 µM (KAI1 promoter): 1.16 | In vivo relative invation [1]: 1.056

O=C(CNC(=O)c1ccccc1OC1CCN(C(=O)CCc2ccccc2)CC1)c1ccccc1 [Example 159, N-(2-oxo-2-phenylethyl)-2-((1-(3-phenylpropanoyl)piperidin-4-yl)oxy)benzamide]
fold induction at 1 µM (KAI1 promoter): 0.99 | In vivo relative invation [1]: 1.059

CC(C)(C)C(=O)NCC(=O)c1ccccc1 [Example 24, N-(2-oxo-2-phenylethyl)pivalamide]
fold induction at 1 µM (KAI1 promoter): 0.84 | In vivo relative invation [1]: 1.128

CC(C)(C)C(=O)NCC(=O)c1ccc(Cl)cc1 [Example 66, N-(2-(4-chlorophenyl)-2-oxoethyl)pivalamide]
fold induction at 1 µM (KAI1 promoter): 0.87 | In vivo relative invation [1]: 1.168

O=C(CNC(=O)c1ccccc1F)c1cccnc1 [Example 132, 2-fluoro-N-(2-oxo-2-(pyridin-3-yl)ethyl)benzamide]
fold induction at 1 µM (KAI1 promoter): 1.18 | In vivo relative invation [1]: 1.226

O=C(CNC(=O)c1cc(C(F)(F)F)cc(C(F)(F)F)c1)c1ccc(Cl)cc1 [Example 72, N-(2-(4-chlorophenyl)-2-oxoethyl)-3,5-bis(trifluoromethyl)benzamide]
fold induction at 1 µM (KAI1 promoter): 0.8 | In vivo relative invation [1]: 1.044

O=C(CNC(=O)c1ccco1)c1ccc(Cl)cc1 [Example 46, N-(2-(4-chlorophenyl)-2-oxoethyl)furan-2-carboxamide]
fold induction at 1 µM (KAI1 promoter): 0.98 | In vivo relative invation [1]: 1.181

CS(=O)(=O)NCC(=O)c1ccccc1 [Example 25, N-(2-oxo-2-phenylethyl)methanesulfonamide]
fold induction at 1 µM (KAI1 promoter): 1.49 | In vivo relative invation [1]: 1.215

CCN(CC)Cc1cccc(C(=O)NCC(=O)c2ccccc2)c1 [Example 247, 3-((diethylamino)methyl)-N-(2-oxo-2-phenylethyl)benzamide]
fold induction at 1 µM (KAI1 promoter): 1.27 | In vivo relative invation [1]: 1.124

O=C(CNS(=O)(=O)c1cccc([N+](=O)[O-])c1)c1ccc(Cl)cc1 [Example 63, N-(2-(4-chlorophenyl)-2-oxoethyl)-3-nitrobenzenesulfonamide]
fold induction at 1 µM (KAI1 promoter): 0.7 | In vivo relative invation [1]: 1.102

CN(C)c1ccc(C(=O)CNC(=O)c2cccc(C(F)(F)F)c2)cc1 [Example 113, N-(2-(4-(dimethylamino)phenyl)-2-oxoethyl)-3-(trifluoromethyl)benzamide]
fold induction at 1 µM (KAI1 promoter): 1.4 | In vivo relative invation [1]: 1.167

O=C(CNC(=O)c1cccc(CN2CCN(c3ccc([N+](=O)[O-])cc3)CC2)c1)c1ccccc1 [Example 238, 3-((4-(4-nitrophenyl)piperazin-1-yl)methyl)-N-(2-oxo-2-phenylethyl)benzamide]
fold induction at 1 µM (KAI1 promoter): 1.6 | In vivo relative invation [1]: 1.12

CC(=O)Oc1ccccc1C(=O)N1CCC(Oc2ccccc2C(=O)NCC(=O)c2ccccc2)CC1 [Example 176, 2-(4-(2-((2-oxo-2-phenylethyl)carbamoyl)phenoxy)piperidine-1-carbonyl)phenylacetate]
fold induction at 1 µM (KAI1 promoter): 1.08 | In vivo relative invation [1]: 1.26

O=C(CNC(=O)c1ccc(-c2ccccc2)cc1)c1ccc(Cl)cc1 [Example 86, N-(2-(4-chlorophenyl)-2-oxoethyl)-[1,1′-biphenyl]-4-carboxamide]
fold induction at 1 µM (KAI1 promoter): 1.01 | In vivo relative invation [1]: 1.193

COCc1ccccc1C(=O)N1CCC(Oc2ccccc2C(=O)NCC(=O)c2ccccc2)CC1 [Example 169, 2-((1-(2-(methoxymethyl)benzoyl)piperidin-4-yl)oxy)-N-(2-oxo-2-phenylethyl)benzamide]
fold induction at 1 µM (KAI1 promoter): 0.99 | In vivo relative invation [1]: 1.186

COc1cccc(NC(=O)COc2ccccc2C(=O)NCC(=O)c2ccccc2)c1 [Example 209, 2-(2-((3-methoxyphenyl)amino)-2-oxoethoxy)-N-(2-oxo-2-phenylethyl)benzamide]
fold induction at 1 µM (KAI1 promoter): 1.12 | In vivo relative invation [1]: 1.07

O=C(CNC(=O)c1cccc(Cl)c1Cl)c1ccccc1 [Example 37, 2,3-dichloro-N-(2-oxo-2-phenylethyl)benzamide]
fold induction at 1 µM (KAI1 promoter): 1.17 | In vivo relative invation [1]: 0.9648

CN(C)c1ccc(C(=O)CNC(=O)c2ccc(F)cc2Cl)cc1 [Example 115, 2-chloro-N-(2-(4-(dimethylamino)phenyl)-2-oxoethyl)-4-fluorobenzamide]
fold induction at 1 µM (KAI1 promoter): 2.04 | In vivo relative invation [1]: 1.209

O=C(CNC(=O)c1ccccc1OC1CCN(C(=O)c2ccco2)CC1)c1ccccc1 [Example 155, 2-((1-(furan-2-carbonyl)piperidin-4-yl)oxy)-N-(2-oxo-2-phenylethyl)benzamide]
fold induction at 1 µM (KAI1 promoter): 0.99 | In vivo relative invation [1]: 1.151

Cc1cc(C)cc(C(=O)NCC(=O)c2ccc(Cl)cc2)c1 [Example 83, N-(2-(4-chlorophenyl)-2-oxoethyl)-3,5-dimethylbenzamide]
fold induction at 1 µM (KAI1 promoter): 0.8 | In vivo relative invation [1]: 1.171

O=C(CNC(=O)c1ccccc1OC(F)(F)F)c1ccc(Cl)cc1 [Example 84, N-(2-(4-chlorophenyl)-2-oxoethyl)-2-(trifluoromethoxy)benzamide]
fold induction at 1 µM (KAI1 promoter): 0.94 | In vivo relative invation [1]: 1.181

CS(=O)(=O)N1CCC(Oc2ccccc2C(=O)NCC(=O)c2ccccc2)CC1 [Example 183, 2-((1-(methylsulfonyl)piperidin-4-yl)oxy)-N-(2-oxo-2-phenylethyl)benzamide]
fold induction at 1 µM (KAI1 promoter): 0.96 | In vivo relative invation [1]: 1.194

O=C(CNC(=O)c1ccccc1OC1CCN(S(=O)(=O)c2ccc(F)cc2)CC1)c1ccccc1 [Example 184, 2-((1-((4-fluorophenyl)sulfonyl)piperidin-4-yl)oxy)-N-(2-oxo-2-phenylethyl)benzamide]
fold induction at 1 µM (KAI1 promoter): 0.98 | In vivo relative invation [1]: 1.114

CN(C)c1ccc(C(=O)CNC(=O)c2ccc(Cl)cc2)cc1 [Example 88, 4-chloro-N-(2-(4-(dimethylamino)phenyl)-2-oxoethyl)benzamide]
fold induction at 1 µM (KAI1 promoter): 1.35 | In vivo relative invation [1]: 0.9216

CCOC(=O)N1CCN(Cc2ccccc2C(=O)NCC(=O)c2ccccc2)CC1 [Example 305, ethyl 4-(2-((2-oxo-2-phenylethyl)carbamoyl)benzyl)piperazine-1-carboxylate]
fold induction at 1 µM (KAI1 promoter): 1.14 | In vivo relative invation [1]: 1.186
